PubChem BioAssay (NCI)
Several values for one entry are separate records, joined by “and”; a condition that tells them apart may be missing. Identical values can stand only once.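 Dose response: 5 concentrations. Exposure: 48 h. Format: 96-well plates. Endpoint: linear interpolation; highest concentration if not reached. Abbreviation: GI50, concentration required for 50% inhibition of growth. At the TGI there is no net growth.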

What was measured:
Experiment in all cases: NCI anticancer screen, dose series, 48 h
A498 renal = system: A498 renal
HS 578T breast = system: HS 578T breast
MOLT-4 leukemia = system: MOLT-4 leukemia
NCI-H23 lung = system: NCI-H23 lung
SK-OV-3 ovarian = system: SK-OV-3 ovarian
ACHN renal = system: ACHN renal
M14 melanoma = system: M14 melanoma
OVCAR-3 ovarian = system: OVCAR-3 ovarian
T-47D breast = system: T-47D breast
MCF7 breast = system: MCF7 breast

SMILES | TGI (A498 renal) | TGI (HS 578T breast) | TGI (MOLT-4 leukemia) | TGI (NCI-H23 lung) | TGI (SK-OV-3 ovarian) | TGI (ACHN renal) | TGI (M14 melanoma) | TGI (OVCAR-3 ovarian) | TGI (T-47D breast) | TGI (MCF7 breast) | GI50 (A498 renal) | GI50 (HS 578T breast) | GI50 (MOLT-4 leukemia) | GI50 (SK-OV-3 ovarian) | GI50 (ACHN renal) | GI50 (M14 melanoma) | GI50 (OVCAR-3 ovarian) | GI50 (T-47D breast) | GI50 (MCF7 breast) | GI50 (NCI-H23 lung)
CC(=O)OC1CCC2(C)C(=CCC3C4CCC5(OC6CC(C)CN(C(C)=O)C6C5C)C(C)=C4C(=O)C32)C1 (configuration not stated) | 31.2 µM | 31.4 µM | 23.6 µM | 29.6 µM | 66.8 µM | 67 µM | 28.9 µM | 72.6 µM | 49 µM | 26.4 µM | – | – | – | – | – | – | – | – | – | –
O=[N+]([O-])/C=C\c1c[nH]c2ccc(OCc3ccccc3)cc12 | 22.6 µM | 7.24 µM | > 100 µM | 7.33 µM | 31.6 µM | 4.72 µM | 4.49 µM | 22.8 µM | 12.4 µM | 73.7 µM | – | – | – | – | – | – | – | – | – | –
CC1SC(c2c(Cl)cccc2Cl)N(NC(=O)C(O)c2ccccc2)C1=O (configuration not stated) | > 100 µM | > 100 µM | > 100 µM | – | > 100 µM | > 100 µM | > 100 µM | > 100 µM | > 100 µM | > 100 µM | 75.7 µM | > 100 µM | > 100 µM | > 100 µM | 92.2 µM | 87 µM | 54.1 µM | 48.2 µM | 74.2 µM | –
COc1ccc2c(c1)cn1c3ccc(O)cc3[nH]c(=O)c21 | 20.7 µM | 25.2 µM | 6.95 µM | 15.5 µM | 12.8 µM | 1.99 µM | 1.21 µM | 1.74 µM | 2.37 µM | 1.95 µM | 0.377 µM | 0.481 µM | 0.316 µM | 0.202 µM | 0.112 µM | 0.0984 µM | 0.0968 µM | 0.487 µM | 0.366 µM | 0.292 µM
CC(CN1CCN(CC(C)Nc2ccnc3cc(Cl)ccc23)CC1)Nc1ccnc2cc(Cl)ccc12 (configuration not stated) | > 56.8 µM | 9.69 µM | > 100 µM | > 57 µM | 76.7 µM | 64.6 µM | 10.5 µM | > 64.4 µM | 74.6 µM | > 100 µM | – | 2.55 µM | – | – | – | – | – | 35.2 µM | 8.29 µM | –
COc1cc(NCC2COc3c(ccc(OC)c3OC)C2=O)c([N+](=O)[O-])cc1OC (configuration not stated) | > 100 µM | > 100 µM | > 100 µM | > 100 µM | > 100 µM | > 100 µM | > 100 µM | > 100 µM | > 100 µM | > 100 µM | – | – | – | – | – | – | – | – | – | –
CCN(CC)CCOc1ccc2c(c1)C(=O)c1cc(OCCN(CC)CC)ccc1-2 | 37.5 µM | 38 µM | 23.9 µM | 27.5 µM | 60.2 µM | 46.5 µM | 27.1 µM | 52.6 µM | 56.2 µM | 14.8 µM | 16.5 µM | 13.7 µM | 5.27 µM | 16.4 µM | 5.92 µM | 14 µM | 18.3 µM | 23.8 µM | 3.44 µM | 11.9 µM
COc1cc(NCc2ccccc2O)c2ncccc2c1 | 60.5 µM | > 100 µM | > 100 µM | 97.3 µM | 50 µM | > 100 µM | 53.6 µM | 84.5 µM | > 100 µM | > 100 µM | 13.2 µM | 24.2 µM | 18.9 µM | 20.2 µM | 26.8 µM | 19 µM | 20.6 µM | 20.4 µM | 24.4 µM | 22.5 µM
COc1cc2cc(Oc3ccc(NC(=O)Nc4ccc(Cl)c(C(F)(F)F)c4)cc3)c(C)nc2cc1OC | 3.32 µM | 2.31 µM | 5.49 µM | 3.79 µM | 5.79 µM | 4 µM | 5.25 µM | 4.45 µM | 7.9 µM | 3.88 µM | 0.754 µM | 0.72 µM | 1.14 µM | 1.35 µM | 1.07 µM | 1.25 µM | 1.16 µM | 1.21 µM | 1.08 µM | 0.991 µM
C(=C\c1nccc2c1[nH]c1ccccc12)/c1ccccc1 | 15.9 µM | 9.34 µM | 22.3 µM | > 100 µM | 13.4 µM | 20.8 µM | > 100 µM | 6.65 µM | 28.2 µM | 23 µM | 4.36 µM | 2.35 µM | 2.84 µM | 2.97 µM | 4.82 µM | 2.91 µM | 2.31 µM | 3.6 µM | 2.15 µM | 3.78 µM
CC(O)C(O)C(O)C(/C=N\Nc1ccccc1)=N/Nc1ccccc1 (configuration not stated) | 22.6 µM | 24.7 µM | 69.5 µM | 24.1 µM | 29.7 µM | 25.3 µM | 27.9 µM | 40.4 µM | 45.9 µM | 24.1 µM | – | – | – | – | – | – | – | – | – | –
COc1cc(-c2cc(/C=C3\C(=O)Nc4ccccc43)[nH]n2)cc(OC)c1OC | 7.71 µM | 62.8 µM | 6.71 µM | 8.95 µM | 26.7 µM | 12 µM | 7.17 µM | 14.5 µM | 6.99 µM | 11 µM | 2.5 µM | 5.43 µM | 2.45 µM | 5 µM | 2.5 µM | 2.29 µM | 3.21 µM | 1.74 µM | 2.77 µM | 2.78 µM
O=C(CNc1ncco1)Nc1ccc(S(=O)(=O)c2ccc(NC(=O)CNc3ncco3)cc2)cc1 | 62.7 µM | > 100 µM | 8.45 µM | 9.51 µM | 24.1 µM | 6.23 µM | 3.55 µM | 3.71 µM | 4.38 µM | 5.66 µM | 21.8 µM | 14.3 µM | 3.13 µM | 10.5 µM | 2.23 µM | 1.7 µM | 1.63 µM | 1.87 µM | 1.34 µM | 2.46 µM
C/C1=C\C/C=C(\C)[C@H]2CC(CC/C(C)=C/CC1)[C@](C)(C=O)O2 | > 100 µM | > 100 µM | > 100 µM | > 100 µM | > 100 µM | > 100 µM | > 100 µM | > 100 µM | > 100 µM | 87.8 µM | 92.2 µM | > 100 µM | 21 µM | > 100 µM | > 100 µM | 51.9 µM | 76.4 µM | > 100 µM | 38.2 µM | > 100 µM
O=C1C(=O)c2ccccc2C(O)=C1CC=C(Cl)Cl | 57.8 µM and 96.2 µM and 51 µM | 194 µM and > 100 µM | 27.1 µM and 103 µM and > 100 µM | 51.3 µM and 154 µM and 99.1 µM | 50.2 µM and 149 µM and > 100 µM | 23 µM and 187 µM and > 100 µM | > 90.7 µM and 108 µM and > 100 µM | 38.9 µM and 70.8 µM and 70.3 µM | 49.3 µM and 213 µM and > 100 µM | > 58.5 µM and 131 µM and > 100 µM | 15.1 µM and 13.9 µM | 14 µM and 13.3 µM | 0.828 µM and 4.68 µM | 15.1 µM and 16.1 µM | 3.48 µM and 7.5 µM | 29.4 µM and 9.94 µM | 9.76 µM and 15 µM | 11 µM and 20.1 µM | 5.15 µM and 4.73 µM | 11.6 µM and 12.7 µM
[C-]#[N+][C@]12C(=O)[C@H](CCC1(C)C)C(C)(C)[C@H]1C(=O)N(C)c3cccc2c31 | 74.2 µM | > 100 µM | > 100 µM | – | > 100 µM | > 100 µM | > 100 µM | > 100 µM | > 100 µM | > 100 µM | 0.81 µM | 68.5 µM | 10.3 µM | 44.4 µM | 80.7 µM | 29.9 µM | 4.13 µM | 9.41 µM | 4.54 µM | –
C1=C(c2ccccc2)SC=C(c2ccccc2)S1 | > 100 µM | > 100 µM | > 100 µM | > 100 µM | > 100 µM | > 100 µM | > 100 µM | > 100 µM | > 100 µM | 48.2 µM | – | – | – | – | – | – | – | – | – | –
CN1CCN(CCNc2ccc(CO)c3sc4ccccc4c(=O)c23)CC1 | 8.2 µM | 31.8 µM | 12.3 µM | 17.6 µM | 14 µM | 26.7 µM | 12 µM | 18.3 µM | 19.4 µM | 8.77 µM | 2.51 µM | 10.7 µM | – | 3.17 µM | – | – | – | 3.37 µM | 1.85 µM | –
CS(=O)(=O)CCn1c(=O)c(Oc2ccc(F)cc2F)cc2cnc(NC3CCOCC3)nc21 | > 25 µM | > 25 µM | > 25 µM | > 25 µM | > 25 µM | > 25 µM | > 25 µM | > 25 µM | > 25 µM | > 25 µM | 15.8 µM | > 25 µM | > 25 µM | > 25 µM | > 25 µM | > 25 µM | > 25 µM | > 25 µM | > 25 µM | > 25 µM
C[C@@H](Oc1ccc2[nH]nc(/C=C/c3cnn(CCO)c3)c2c1)c1c(Cl)cncc1Cl | 0.274 µM | 0.681 µM | 3.34 µM | 2.18 µM | 6.15 µM | > 100 µM | 3.11 µM | 3.56 µM | 7.69 µM | 4.06 µM | < 0.01 µM | 0.106 µM | 0.488 µM | 1.29 µM | 0.284 µM | 0.739 µM | 0.462 µM | 1.31 µM | 0.0573 µM | 0.0796 µM
C1=C(c2ccccc2)C(c2ccc(OCCN3CCCCC3)cc2)Oc2ccccc21 (configuration not stated) | 3.17 µM | 5.23 µM | 5.84 µM | 6.3 µM | – | 3.15 µM | 3.38 µM | 4.14 µM | 2.78 µM | 1.88 µM | 1.67 µM | 2.18 µM | 2.37 µM | – | 1.66 µM | 1.73 µM | 1.88 µM | 1.04 µM | 0.441 µM | 2.29 µM
